From PMC3150407, “Differential Inhibitor Sensitivity between Human Kinases VRK1 and VRK2” (PLoS ONE, 2011)
“Also recorded” adds a separate entry of the source. Counter-ions that a name gives are not always drawn.

Columns and labels:
GST-VRK1 [1] = target: T1, GST-VRK1 (Homo sapiens, UniProt Q99986); assay: In vitro kinase assay, GST-VRK1 phosphorylation of histone H3; type: biochemical; conditions: 5 µM ATP; average of three experiments, ± standard deviation; No inhibition is lack of effect at 100 µM
T1 construct: made in house
T1 sequence (Q99986 1-396): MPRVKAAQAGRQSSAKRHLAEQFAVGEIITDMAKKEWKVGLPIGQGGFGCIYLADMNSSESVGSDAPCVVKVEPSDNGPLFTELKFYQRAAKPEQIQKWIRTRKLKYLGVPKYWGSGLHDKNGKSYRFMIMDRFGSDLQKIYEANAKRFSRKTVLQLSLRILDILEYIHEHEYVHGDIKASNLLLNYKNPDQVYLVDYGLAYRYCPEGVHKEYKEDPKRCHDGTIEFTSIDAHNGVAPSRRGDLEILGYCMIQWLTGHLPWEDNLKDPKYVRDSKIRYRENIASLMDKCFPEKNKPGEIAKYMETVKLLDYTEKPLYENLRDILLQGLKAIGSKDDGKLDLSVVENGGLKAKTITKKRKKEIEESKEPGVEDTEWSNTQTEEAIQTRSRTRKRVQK

VRK2A = target: T2, VRK2A (Homo sapiens, UniProt Q86Y07); assay: In vitro kinase assay, VRK2A kinase activity (autophosphorylation and H3 phosphorylation); type: biochemical; conditions: for IC50 / Effect on VRK2 (VRK2A) kinase activity at 100 µM inhibitor (in words): 5 µM ATP; for IC50: H3 phosphorylation or autophosphorylation, read-out: Concentration giving fifty percent inhibition of VRK2A activity; for Effect on VRK2 (VRK2A) kinase activity at 100 µM inhibitor (in words): inhibitor 100 µM, autophosphorylation and H3 phosphorylation
T2 construct: a full-length protein of 508 aminoacids (known as VRK2 and VRK2A); made in house; host or cells: E. coli BL21

GST-VRK2A [2] = target: T3, GST-VRK2A (Homo sapiens, UniProt Q86Y07); assay: In vitro kinase assay, GST-VRK2A autophosphorylation; type: biochemical; conditions: for IC50: read-out: IC50 (µM) GST-VRK2A Auto-phosphorylation
T3 construct: a full-length protein of 508 aminoacids (known as VRK2 and VRK2A); made in house; host or cells: E. coli BL21

GST-VRK2A [3] = target: T3, GST-VRK2A; assay: In vitro kinase assay, GST-VRK2A phosphorylation of histone H3; type: biochemical
GST-VRK1 [4] = target: T1, GST-VRK1; assay: In vitro kinase assay, GST-VRK1 autophosphorylation; type: biochemical; conditions: 5 µM ATP, average of three experiments, ± standard deviation, No inhibition is lack of effect at 100 µM; for IC50: read-out: IC50 (µM) GST-VRK1 Auto- phosphorylation
[5] = target: vaccinia virus B1R kinase (Vaccinia virus, UniProt P16913); type: biochemical; conditions: p53 and histone H3 as substrates, ATP 5 µM
CK1 = conditions: read-out: Concentration inhibiting CK1; cited from earlier work
S6K = conditions: Table S1, known target value; no reference given; read-out: Kinase target (IC50) S6K; cited from earlier work
MSK1 = conditions: Table S1, known target value; no reference given; read-out: Kinase target (IC50) MSK1; cited from earlier work
ATM = conditions: Table S1, known target value; no reference given; read-out: Kinase target (IC50) ATM; cited from earlier work
human VRK1 = target: T4, human VRK1 (Homo sapiens, UniProt Q99986); assay: In vitro kinase assay, VRK1 kinase activity (autophosphorylation and H3 phosphorylation); type: biochemical; conditions: for Effect on VRK1 kinase activity at 100 µM inhibitor (in words): inhibitor 100 µM, 5 µM ATP, autophosphorylation and H3 phosphorylation
T4 construct: made in house
T4 sequence (Q99986 1-396): T1 sequence (Q99986 1-396)

GSK-3β = conditions: Table S1, known target value; no reference given; read-out: Kinase target (IC50) GSK-3β; cited from earlier work
CHK2 = conditions: Table S1, known target value; no reference given; read-out: Kinase target (IC50) CHK2; cited from earlier work
Mek1 = conditions: Table S1, known target value; no reference given; read-out: Kinase target (IC50) Mek1; cited from earlier work
PKC isoforms = conditions: read-out: Reported fifty percent inhibition of PKC isoforms; cited from earlier work
DNA-PKcs = conditions: Table S1, known target value; no reference given; read-out: Kinase target (IC50) DNA-PKcs; cited from earlier work
DNA-PK = conditions: Table S1, known target value; no reference given; read-out: Kinase target (IC50) DNA-PK; cited from earlier work
[6] = 5 µM ATP, average of three experiments, ± standard deviation, No inhibition is lack of effect at 100 µM

Row | SMILES | Sensitivity of vaccinia virus B1R kinase to inhibitor (in words) [5] | IC50 (µM) GST-VRK1 H3 phosphorylation (GST-VRK1 [1]) | Effect on VRK2 (VRK2A) kinase activity at 100 µM inhibitor (in words) (VRK2A) | IC50 (µM) GST-VRK2A Auto-phosphorylation (GST-VRK2A [2]; [6]) | IC50 (µM) GST-VRK2A H3 phosphorylation (GST-VRK2A [3]; [6]) | IC50 (µM) GST-VRK1 Auto- phosphorylation (GST-VRK1 [4]) | Effect on VRK1 kinase activity at 100 µM inhibitor (in words) (human VRK1) | further results
1 | COc1cc(OC)c(C=C2C(=O)Nc3ccccc32)c(OC)c1 [IC261] | not |  |  |  |  |  |  | IC50 (GST-VRK1 [1]): 55.9 ± 1.04 µM; IC50 (VRK2A): 10 µM; IC50 (GST-VRK2A [2]; [6]): 11.1 ± 1.1 µM; IC50 (GST-VRK2A [3]; [6]): 14.7 ± 1.13 µM; IC50 (GST-VRK1 [4]): 121.4 ± 1.05 µM; IC50 (CK1): 6 µM; IC50 (S6K): 6 µM; IC50 (MSK1): 6 µM
2 | O=c1cc(-c2cccc3c2Sc2ccccc2S3)oc(N2CCOCC2)c1 [KU55933, 2-(4-Morpholinyl)-6-(1-thianthrenyl)-4H-pyran-4-one] | sensitive | No inhibition | no noticeable effect | No inhibition | No inhibition | No inhibition | no noticeable effect | IC50 (ATM): […]
3 | O=c1nc(NCc2ccccc2)s[nH]1 [TDZD-20, 5-Benzylamino-3-oxo-2,3-dyhidro-1,2-4-thiadiazole] |  | No inhibition | insensitive; also recorded: not able to inhibit | No inhibition | No inhibition | No inhibition | not able to inhibit | IC50 (GSK-3β): 6.5 µM; Effect on VRK1 kinase activity at concentrations similar to those of TDZD-8 (in words) (human VRK1; similar concentrations (5 to 7.5 µM), Fig. S2B): no effect
4 | NC(=O)Nc1cc(-c2cccc(F)c2)sc1C(=O)N[C@H]1CCCNC1 [AZD7762, 5-(3-Fluorophenyl)-3-ureidothiophene-N-[(S)-piperidin-3-yl]-2-carboxamide] |  | No inhibition |  |  |  | No inhibition |  | IC50 (VRK2A): 30 µM; IC50 (GST-VRK2A [2]): 40 ± 1.07 µM; IC50 (GST-VRK2A [3]): 24.4 ± 1.07 µM; IC50 (CHK2): < 0.01 µM
5 | Cn1sc(=O)n(Cc2ccccc2)c1=O [TDZD-8, 4-benzil-2methyl-1,2,4-thiodiazolidine-3,5-dione] |  | Inhibition at 7.5 µM |  | No inhibition | No inhibition | Inhibition at 7.5 µM | more sensitive | Effect on VRK2A kinase activity at 500 µM inhibitor (in words) (VRK2A; inhibitor 500 µM (not shown)): insensitive; IC50 (GSK-3β): 2 µM; Effect on VRK1 kinase activity at 5 µM inhibitor (in words) (human VRK1; inhibitor 5 µM, autophosphorylation or H3 phosphorylation): no significant inhibition; Effect on VRK1 kinase activity at 7.5 µM inhibitor (in words) (human VRK1; inhibitor 7.5 µM, autophosphorylation or H3 phosphorylation): almost completely inhibited
6 | C[S+]([O-])c1ccc(-c2nc(-c3ccc(F)cc3)c(-c3ccncc3)[nH]2)cc1 (stereo not shown) [SB203580, 4-(4-Fluorophenyl)-2-(4-methylsulfinylphenyl)-5-(4-pyridyl)-1H-imidazole] |  | No inhibition | None of them was able to induce a significant inhibition |  |  | No inhibition | None of them was able to induce a significant inhibition | 
7 | CC[C@H](CO)Nc1nc(NCc2ccccc2)c2ncn(C(C)C)c2n1 [Roscovitine, 2-(R)-(1-Ethyl-2-hydroxyethylamino)-6-benzylamino-9-isopropylpurine] |  | No inhibition |  |  |  | No inhibition |  | Effect on VRK1 kinase activity at 250 µM inhibitor (in words) (human VRK1; inhibitor 250 µM): some noticeable effect
8 | CN[C@@H]1C[C@H]2O[C@@](C)([C@@H]1OC)n1c3ccccc3c3c4c(c5c6ccccc6n2c5c31)C(=O)NC4 [Staurosporine, (9S,10R,11R,13R)-2,3,10,11,12,13-Hexahydro-10-methoxy-9-methyl-11-(methylamino)-9,13-epoxy-1H,9H-diindolo[1,2,3-gh:3',2',1'-lm]pyrrolo[3,4-j][1,7]benzodiazonin-1-one] | sensitive |  |  |  |  |  |  | Inhibition of VRK2A activity, concentration series (in words) (VRK2A; Fig. 3D, concentration not given): not inhibited
9 | COc1cccc(-c2cc(=O)c3ccccc3o2)c1N [PD98059, 2’-Amino-3’-methoxyflavone] |  | No inhibition | None of them was able to induce a significant inhibition | No inhibition | No inhibition | No inhibition | None of them was able to induce a significant inhibition | IC50 (Mek1): […]
10 | Cn1cc(C2=C(c3cn(CCCSC(=N)N)c4ccccc34)C(=O)NC2=O)c2ccccc21 [RO 31–8220, 2-(1-[3-(Amidinothio)propyl]-1H-indol-3-yl)-3-methanosulfonate salt] | sensitive |  |  |  |  |  |  | IC50 (GST-VRK1 [1]): 34.4 ± 1.05 µM; IC50 (GST-VRK2A [2]; [6]): 31.8 ± 1.15 µM; IC50 (GST-VRK2A [3]; [6]): 33.6 ± 1.04 µM; IC50 (GST-VRK1 [4]): 11.1 ± 1.16 µM; IC50 (PKC isoforms): 0.005 to 0.027 µM
11 | CC(=O)c1ccc(N2CCOCC2)cc1O [IC86621, 1-(2-Hydroxy-4-morpholin-4-yl-phenyl)ethanone] |  | No inhibition | no noticeable effect | No inhibition | No inhibition | No inhibition | no noticeable effect | IC50 (DNA-PKcs): 0.1 µM
12 | O=c1cc(N2CCOCC2)oc2c1ccc1ccccc12 [NU7026, 2-(Morpholin-4-yl)-benzo[h]chomen-4-one] |  | No inhibition | no noticeable effect | No inhibition | No inhibition | No inhibition | no noticeable effect | IC50 (DNA-PK): 0.23 µM
